{"source": "patent US20090209548A1", "about": "“FORMULATION FOR STIMULATING HAIR GROWTH” (Pfizer Inc, priority 2004, published 2009)", "key": {"[1]": {"test": "In-vitro human cadaver skin permeation, Franz diffusion cell", "assay_type": "in vitro ADME", "details": "for Mean Percentage of Radioactivity Recovered at 24 Hours, Dermis / Mean Percentage of Radioactivity Recovered at 24 Hours, Epidermis / Mean Percentage of Radioactivity Recovered at 24 Hours, Receptor / Mean Percentage of Radioactivity Recovered at 24 Hours, Surface / Mean Percentage of Radioactivity Recovered at 24 Hours, Total: Compound 0.96% w/v", "procedure": "Experimentally, the flux can be determined by measuring the amount of drug permeation into the receptor compartment of a Franz cell over time. The cumulative drug permeated per cm^2 is than plotted against time and the steady state permeation rate (flux, J) is calculated from the slope of the linear portion of the curve according to Fick's 1st law of diffusion.\nIn Examples 2-5 infra, the cumulative amount of Compound permeated through the skin as amount per surface area (μg/cm^2) was plotted against time (hours). Flux (μg/cm^2/hr) was determined by calculating the slope of the linear portion of the permeation profile. Drawing III depicts such a calculation. Typical variance in measured flux of 10 replicate samples is about 30-50%. However, if the formulation provides low flux of the Compound, indicating poor permeation through the skin, the variance could be much higher than the typical 30-50%.\nThis methodology utilizes a device known as the Franz Diffusion Cell. A typical device is depicted in Drawing II. The test is carried out using the following general methodology. A sample of human cadaver skin is inserted in to the area labeled as skin. The skin should be oriented so that the stratum corneum is facing the Donor Compartment and the dermis is facing the Receptor Compartment. The Receptor Compartment will be filled with a predefined solution (based on solubility of test agent). A dose of test agent, in a defined volume, is inserted into the Donor Compartment so that it may come in contact with the skin sample and potentially diffuse thru the skin into the Receptor Compartment. Samples of solution are then withdrawn from Receptor Compartment at defined time points and the concentration of test agent is determined. The amount of test agent permeated per cm^2 of skin is plotted versus time and the flux of the test agent is calculated as described above. The reader's attention is directed to Example 2, which provides a more detailed discussion of this test.\nAs with any testing method, the results can vary depending upon how the test is carried out. […] Thus, as used in this application including the claims, any flux determination should be carried by controlling the following parameters: • 1) Apparatus—The apparatus should be a Franz Diffusion Cell. Each cell should have a cell volume of 5.4 to 5.5 ml. Ten (10) cells should be utilized per formulation (i.e. both the test formulation and the reference formulation). As is standard in the field, the results are reported as the mean. • 2) Skin—Skin samples used for both the test formulation and the reference formulation should be human cadaver skin obtained from a single donor, who is […], between the ages of 50 and 75 and is obtained from the subjects back. […] The surface area of the skin samples should be 0.635 cm^2 (internal diameter of opening of 9 mm). The donor compartment should be maintained at room temperature (see Table A for specifics). • 3) Testing—Testing should be carried out for 24 hours. Sample should be withdrawn at the initiation of testing, and 2, 4, 12, 16, and 24 hours after initiation of testing. The sample volume should be 0.5 ml. The Compound should be present at identical concentrations in both the test formulation and the reference formulation (w/v for liquids and w/w for semi-solids). This concentration should be equal to that used in the final dosage form (i.e., what is being developed for eventual human application). A dose volume of 10 μl/0.635 cm^2 should be used. • 4) Receptor Solution—0.1% (w/v) Brij-98 in Dulbecco's phosphate buffered saline, pit 6.9 (KH2PO4 14.7 mM and Na2HPO4 80.9 mM). • 5) Barrier Integrity—The barrier integrity of human cadaver donor skin is assessed to ensure that changes in flux are attributed to the formulation versus a faulty skin barrier (e.g., cut, scrape, lesion, etc). […] The receptor fluid is assayed for these compounds. […]"}, "hair growth cycle": {"system": "hair growth cycle", "details": "animal studies; topical; co-pending application 60/544,116; cited from earlier work"}, "[2]": {"details": "Table 2, vehicle 63.5:20:8:7.5% w/w EtOH/PG/CPE-215/Water"}, "[3]": {"details": "Table 2, vehicle 70:30% w/w EtOH/PG"}, "[4]": {"details": "Table 3, vehicle 60:20:20% w/w EtOH/PG/IPM"}, "[5]": {"details": "Table 3, vehicle 63.5:20:8:7.5% w/w EtOH/PG/CPE-215/Water"}, "[6]": {"details": "Table 4, vehicle 60:20:20% w/w EtOH/PG/IPM, skin 1.03-1.19 mm"}, "[7]": {"details": "Table 4, vehicle 70:20:10% w/w EtOH/PG/IPM, skin 1.03-1.19 mm"}}, "data": [{"compound": "Cn1nc(O[C@@H]2c3cc(S(=O)(=O)c4cccc(O)c4)ccc3OC(C)(C)[C@@]2(C)O)ccc1=O", "note": "[Compound, 6-[[(3S,4R)-3,4-dihydro-3-hydroxy-6-[(3-hydroxyphenyl)sulfonyl]-2,2,3-trimethyl-2H-1-benzopyran-4-yl]oxy]-2-methyl-3(2H)-pyridazinone]", "values": [{"measurement": "Flux", "setting": "[1]; Example 3, Compound 0.96% w/v in ethanol:propylene glycol:Cyclopentadecanolide:Water (63.5:20:8:7.5% w/w/w/w), skin 0.71-0.96 mm and 0.90-1.04 mm", "result": "0.053±0.003", "unit": "μg/cm^2/hr"}, {"measurement": "Flux", "setting": "[1]; Example 3, Compound 0.96% w/v in reference formulation (70% ethanol:30% propylene glycol w/w), skin 0.71-0.96 mm and 0.90-1.04 mm", "result": "0.004±0.006", "unit": "μg/cm^2/hr"}, {"measurement": "Flux", "setting": "[1]; Example 4, carrier ethanol:propylene glycol:Cyclopentadecanolide:Water (63.5:20:8:7.5% w/w/w/w), skin 0.71-0.96 mm and 0.90-1.04 mm", "result": "0.022±0.007", "unit": "μg/cm^2/hr"}, {"measurement": "Flux", "setting": "[1]; Example 4, carrier ethanol:propylene glycol:IPM (60:20:20% w/w/w), skin 0.71-0.96 mm and 0.90-1.04 mm", "result": "0.017±0.008", "unit": "μg/cm^2/hr"}, {"measurement": "Flux", "setting": "[1]; Example 5, carrier ethanol:propylene glycol:IPM (60:20:20% w/w/w), skin 1.03-1.19 mm", "result": "0.011±0.003", "unit": "μg/cm^2/hr"}, {"measurement": "Flux", "setting": "[1]; Example 5, carrier ethanol:propylene glycol:IPM (70:20:10% w/w/w), skin 1.03-1.19 mm", "result": "0.007±0.003", "unit": "μg/cm^2/hr"}, {"measurement": "Flux", "setting": "[1]; Example 6, Compound 1.86% w/v, carrier EtOH/PG/DMI (dimethyl isosorbide) (60:30:10% w/w)", "result": "0.036±0.0336", "unit": "μg/cm^2/hr"}, {"measurement": "Flux", "setting": "[1]; Example 6, Compound 1.86% w/v, carrier EtOH/PG/Miglyol 840 (50:30:20% w/w/w)", "result": "0.11±0.007", "unit": "μg/cm^2/hr"}, {"measurement": "Flux", "setting": "[1]; Example 6, Compound 1.86% w/v, carrier ethanol:propylene glycol:IPM (50:30:20% w/w/w)", "result": "191±0.026", "unit": "μg/cm^2/hr"}, {"measurement": "Skin permeation as compared with the reference formulation", "setting": "[1]; FIG. 4, carrier comprising a penetration enhancer (Cyclopentadecanolide) vs reference formulation", "result": "greatly enhanced"}, {"measurement": "Mean Percentage of Radioactivity Recovered at 24 Hours, Dermis", "setting": "[1]; [2]", "result": 0.61, "unit": "%"}, {"measurement": "Mean Percentage of Radioactivity Recovered at 24 Hours, Epidermis", "setting": "[1]; [2]", "result": 8.50, "unit": "%"}, {"measurement": "Mean Percentage of Radioactivity Recovered at 24 Hours, Receptor", "setting": "[1]; [2]", "result": 0.56, "unit": "%"}, {"measurement": "Mean Percentage of Radioactivity Recovered at 24 Hours, Surface", "setting": "[1]; [2]", "result": 84.77, "unit": "%"}, {"measurement": "Mean Percentage of Radioactivity Recovered at 24 Hours, Total", "setting": "[1]; [2]", "result": 94.43, "unit": "%"}, {"measurement": "Mean Percentage of Radioactivity Recovered at 24 Hours, Dermis", "setting": "[1]; [3]", "result": 0.06, "unit": "%"}, {"measurement": "Mean Percentage of Radioactivity Recovered at 24 Hours, Epidermis", "setting": "[1]; [3]", "result": 2.53, "unit": "%"}, {"measurement": "Mean Percentage of Radioactivity Recovered at 24 Hours, Receptor", "setting": "[1]; [3]", "result": 0.05, "unit": "%"}, {"measurement": "Mean Percentage of Radioactivity Recovered at 24 Hours, Surface", "setting": "[1]; [3]", "result": 79.30, "unit": "%"}, {"measurement": "Mean Percentage of Radioactivity Recovered at 24 Hours, Total", "setting": "[1]; [3]", "result": 81.94, "unit": "%"}, {"measurement": "Mean Percentage of Radioactivity Recovered at 24 Hours, Dermis", "setting": "[1]; [4]", "result": 0.78, "unit": "%"}, {"measurement": "Mean Percentage of Radioactivity Recovered at 24 Hours, Epidermis", "setting": "[1]; [4]", "result": 8.04, "unit": "%"}, {"measurement": "Mean Percentage of Radioactivity Recovered at 24 Hours, Receptor", "setting": "[1]; [4]", "result": 0.14, "unit": "%"}, {"measurement": "Mean Percentage of Radioactivity Recovered at 24 Hours, Surface", "setting": "[1]; [4]", "result": 79.28, "unit": "%"}, {"measurement": "Mean Percentage of Radioactivity Recovered at 24 Hours, Total", "setting": "[1]; [4]", "result": 88.24, "unit": "%"}, {"measurement": "Mean Percentage of Radioactivity Recovered at 24 Hours, Dermis", "setting": "[1]; [5]", "result": 0.76, "unit": "%"}, {"measurement": "Mean Percentage of Radioactivity Recovered at 24 Hours, Epidermis", "setting": "[1]; [5]", "result": 8.71, "unit": "%"}, {"measurement": "Mean Percentage of Radioactivity Recovered at 24 Hours, Receptor", "setting": "[1]; [5]", "result": 0.16, "unit": "%"}, {"measurement": "Mean Percentage of Radioactivity Recovered at 24 Hours, Surface", "setting": "[1]; [5]", "result": 79.36, "unit": "%"}, {"measurement": "Mean Percentage of Radioactivity Recovered at 24 Hours, Total", "setting": "[1]; [5]", "result": 88.99, "unit": "%"}, {"measurement": "Mean Percentage of Radioactivity Recovered at 24 Hours, Dermis", "setting": "[1]; [6]", "result": 1.00, "unit": "%"}, {"measurement": "Mean Percentage of Radioactivity Recovered at 24 Hours, Epidermis", "setting": "[1]; [6]", "result": 12.00, "unit": "%"}, {"measurement": "Mean Percentage of Radioactivity Recovered at 24 Hours, Receptor", "setting": "[1]; [6]", "result": 0.07, "unit": "%"}, {"measurement": "Mean Percentage of Radioactivity Recovered at 24 Hours, Surface", "setting": "[1]; [6]", "result": 73.00, "unit": "%"}, {"measurement": "Mean Percentage of Radioactivity Recovered at 24 Hours, Total", "setting": "[1]; [6]", "result": 86.1, "unit": "%"}, {"measurement": "Mean Percentage of Radioactivity Recovered at 24 Hours, Dermis", "setting": "[1]; [7]", "result": 1.04, "unit": "%"}, {"measurement": "Mean Percentage of Radioactivity Recovered at 24 Hours, Epidermis", "setting": "[1]; [7]", "result": 12.27, "unit": "%"}, {"measurement": "Mean Percentage of Radioactivity Recovered at 24 Hours, Receptor", "setting": "[1]; [7]", "result": 0.10, "unit": "%"}, {"measurement": "Mean Percentage of Radioactivity Recovered at 24 Hours, Surface", "setting": "[1]; [7]", "result": 75.24, "unit": "%"}, {"measurement": "Mean Percentage of Radioactivity Recovered at 24 Hours, Total", "setting": "[1]; [7]", "result": 88.66, "unit": "%"}, {"measurement": "Effect on the hair growth cycle", "setting": "hair growth cycle", "result": "alters the hair growth cycle by inducing anagen"}]}]}
